Results taken from US20250230159A1, “FUSED HETEROCYCLIC COMPOUNDS AS MODULATORS OF RAS SIGNALLING” (Shenzhen Ionova Life Science Co., Ltd., priority 2022, published 2025).
Like-named read-outs stand apart in the source and are kept apart here.

Columns and labels:
[1] = target: KRAS-G12C/SOS1 interaction (Homo sapiens (Human), UniProt Q07889); assay: Protein-Protein Interaction (PPI) assay, SOS1-KRAS binding assay kit (HTRF)
pERK in Hela cells = assay: Phospho-ERK (p-ERK) assay in Hela cells; assay type: cell-based; details: Homo sapiens, β-actin normalized
Procedure, shortened: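 Cells were treated for 1 h at 37 °C with compound in a 9-point, 3-fold series from 10 μM, then fixed and stained for pERK and β-actin. An In-Cell Western read-out normalized pERK to β-actin and to vehicle wells to give % inhibition and IC50.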

KRAS-G12C/SOS1 interaction, sequence (Q07889 whole entry, stated change not applied): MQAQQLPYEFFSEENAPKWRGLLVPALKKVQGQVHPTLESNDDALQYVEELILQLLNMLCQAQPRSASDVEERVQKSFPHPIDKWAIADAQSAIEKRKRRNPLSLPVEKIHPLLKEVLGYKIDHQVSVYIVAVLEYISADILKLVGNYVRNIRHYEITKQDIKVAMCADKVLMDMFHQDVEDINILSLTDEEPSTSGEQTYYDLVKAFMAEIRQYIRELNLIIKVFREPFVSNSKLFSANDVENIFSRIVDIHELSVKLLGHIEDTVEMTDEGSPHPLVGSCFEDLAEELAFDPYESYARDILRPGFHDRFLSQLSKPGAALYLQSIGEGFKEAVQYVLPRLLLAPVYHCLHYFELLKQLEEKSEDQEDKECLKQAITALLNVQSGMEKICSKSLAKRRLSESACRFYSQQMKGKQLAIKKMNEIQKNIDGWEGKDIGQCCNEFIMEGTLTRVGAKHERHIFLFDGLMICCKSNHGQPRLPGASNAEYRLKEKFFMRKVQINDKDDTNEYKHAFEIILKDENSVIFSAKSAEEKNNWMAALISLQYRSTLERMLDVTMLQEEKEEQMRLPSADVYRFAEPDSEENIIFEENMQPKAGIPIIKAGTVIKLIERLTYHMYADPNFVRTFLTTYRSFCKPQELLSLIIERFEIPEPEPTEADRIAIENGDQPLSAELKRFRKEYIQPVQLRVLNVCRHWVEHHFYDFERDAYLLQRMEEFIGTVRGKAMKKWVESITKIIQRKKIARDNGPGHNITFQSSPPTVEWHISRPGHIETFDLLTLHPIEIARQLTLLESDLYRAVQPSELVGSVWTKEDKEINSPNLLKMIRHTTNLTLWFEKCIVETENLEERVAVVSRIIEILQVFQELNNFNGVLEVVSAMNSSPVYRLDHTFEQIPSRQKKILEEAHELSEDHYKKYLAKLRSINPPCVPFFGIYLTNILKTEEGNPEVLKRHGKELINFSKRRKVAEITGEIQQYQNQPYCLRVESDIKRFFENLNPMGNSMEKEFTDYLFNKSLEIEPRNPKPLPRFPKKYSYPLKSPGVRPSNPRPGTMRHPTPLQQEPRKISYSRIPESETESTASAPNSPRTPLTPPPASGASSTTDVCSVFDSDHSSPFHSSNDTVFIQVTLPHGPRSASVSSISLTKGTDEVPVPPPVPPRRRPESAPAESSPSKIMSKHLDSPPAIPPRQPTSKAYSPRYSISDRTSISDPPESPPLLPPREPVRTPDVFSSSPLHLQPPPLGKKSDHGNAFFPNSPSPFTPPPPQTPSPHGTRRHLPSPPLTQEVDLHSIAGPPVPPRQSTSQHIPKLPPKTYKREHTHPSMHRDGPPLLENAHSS

SMILES	IC50 ([1]; read-out: PPI Assay IC50) [µM]	IC50 (pERK in Hela cells; Table 1, 1 hour with compound) [µM]	IC50 [1] [µM]	IC50 (pERK in Hela cells; Table 2, 1 hour with compound) [µM]
CC(=O)N1CCC(C)(c2cc3c(N[C@H](C)c4cccc(C(F)F)c4F)ncnc3n3nnnc23)CC1 [Example 132]	< 0.1	< 0.1		
CC(=O)N1CCC(O)(c2cc3c(N[C@H](C)c4cccc(C(F)F)c4F)ncnc3n3c(C(F)(F)F)nnc23)CC1 [Example 135, (R)-1-(4-(4-((1-(3-(difluoromethyl)-2-fluorophenyl)ethyl)amino)-9-(trifluoromethyl)-[1,2,4]triazolo[4′,3′:1,6]pyrido[2,3-d]pyrimidin-6-yl)-4-hydroxypiperidin-1-yl)ethan-1-one]	< 0.1	> 0.1		
CC(=O)N1CCC(c2cc3c(N[C@H](C)c4cccc(C(F)F)c4F)ncnc3n3cnnc23)CC1 [Example 136, (R)-1-(4-(4-((1-(3-(difluoromethyl)-2-fluorophenyl)ethyl)amino)-[1,2,4]triazolo[4′,3′:1,6]pyrido[2,3-d]pyrimidin-6-yl)piperidin-1-yl)ethan-1-one]	< 0.1	> 0.1		
CC(=O)N1CCC(c2cc3c(N[C@H](C)c4cccc(C(F)F)c4F)nc(C)nc3n3cnnc23)C1 (some centres unmarked) [Example 137]	< 0.1	> 0.1		
CC(=O)N1CCC(c2cc3c(N[C@H](C)c4cccc(C(F)F)c4F)nc(C)nc3n3nnnc23)CC1 [Example 142]	< 0.1	> 0.1		
CC(=O)N1CCC(c2cc3c(N[C@H](C)c4cccc(C(F)F)c4F)ncnc3n3nnnc23)CC1 [Example 145]	< 0.1	< 0.1		
C[C@@H](Nc1ncnc2c1cc(C1CCN(S(C)(=O)=O)CC1)c1nnnn12)c1cccc(C(F)F)c1F [Example 146]	< 0.1	< 0.1		
COCC(=O)N1CCC(c2cc3c(N[C@H](C)c4cc(N)cc(C(F)(F)F)c4)nc(C)nc3n3nnnc23)CC1 [Example 147]	< 0.1	> 0.1		
COCC(=O)N1CCC(c2cc3c(N[C@H](C)c4cccc(C(F)F)c4F)ncnc3n3nnnc23)CC1 [Example 148]	< 0.1	> 0.1		
Cc1nc(N[C@H](C)c2cccc(C(F)F)c2F)c2cc(C3=CC[S+]([O-])CC3)c3nncn3c2n1 (stereo partly drawn) [Example 149, 4-(4-(((R)-1-(3-(difluoromethyl)-2-fluorophenyl)ethyl)amino)-2-methyl-[1,2,4]triazolo[4′,3′:1,6]pyrido[2,3-d]pyrimidin-6-yl)-3,6-dihydro-2H-thiopyran 1-oxide]			> 0.1	> 0.1
Cc1nc(N[C@H](C)c2cccc(C(F)F)c2F)c2cc(C3CC[S+]([O-])CC3)c3nncn3c2n1 (some centres unmarked) [Example 150]	< 0.1	> 0.1		
Cc1nc(N[C@H](C)c2cccc(C(F)F)c2F)c2cc(C3=CCS(=O)(=O)CC3)c3nncn3c2n1 [Example 151, (R)-4-(4-((1-(3-(difluoromethyl)-2-fluorophenyl)ethyl)amino)-2-methyl-[1,2,4]triazolo[4′,3′:1,6]pyrido[2,3-d]pyrimidin-6-yl)-3,6-dihydro-2H-thiopyran 1,1-dioxide]	< 0.1	> 0.1		
Cc1nc(N[C@H](C)c2cccc(C(F)F)c2F)c2cc(C3CCS(=O)(=O)CC3)c3nncn3c2n1 [Example 152]	< 0.1	> 0.1		
C[C@@H](Nc1ncnc2c1cc(N1CCOCC1)c1ncnn12)c1cc(N)cc(C(F)(F)F)c1 [Example 153, (R)—N-(1-(3-amino-5-(trifluoromethyl)phenyl)ethyl)-4-morpholino-[1,2,4]triazolo[1′,5′:1,6]pyrido[2,3-d]pyrimidin-6-amine]	< 0.1	> 0.1		
Cc1nc2c(N3CCOCC3)cc3c(N[C@H](C)c4cccc(C(F)F)c4F)ncnc3n2n1 [Example 154]	< 0.1	< 0.1		
Cc1nc2c(N3CCOCC3=O)cc3c(N[C@H](C)c4cccc(C(F)F)c4F)ncnc3n2n1 [Example 155]	< 0.1	< 0.1		

SMILES	IC50 ([1]; read-out: PPI Assay IC50) [µM]	IC50 (pERK in Hela cells; Table 1, 1 hour with compound) [µM]	IC50 [1] [µM]	IC50 (pERK in Hela cells; Table 2, 1 hour with compound) [µM]
Cc1nc2c(N3CCOC4(CC4)C3=O)cc3c(N[C@H](C)c4cccc(C(F)F)c4F)ncnc3n2n1 [Example 156]	< 0.1	< 0.1		
Cc1nc2c(N3CC4(CC4)OCC3=O)cc3c(N[C@H](C)c4cccc(C(F)F)c4F)ncnc3n2n1 [Example 157]	< 0.1	< 0.1		
Cc1nc2c(N3CCOCCC3=O)cc3c(N[C@H](C)c4cccc(C(F)F)c4F)ncnc3n2n1 [Example 158]	< 0.1	< 0.1		
C[C@@H](Nc1ncnc2c1cc(N1CCOC[C@@H]1C)c1nncn12)c1cc(N)cc(C(F)(F)F)c1 [Example 159]	< 0.1	> 0.1		
C[C@@H](Nc1ncnc2c1cc(N1CCOCC1=O)c1nncn12)c1cccc(C(F)F)c1F [Example 162]	< 0.1	< 0.1		
Cc1nc(N[C@H](C)c2cccc(C(F)F)c2F)c2cc(N3CCOCC3=O)c3nncn3c2n1 [Example 163]	< 0.1	< 0.1		
C[C@@H](Nc1ncnc2c1cc(N1CCN(C)C(=O)C1)c1nncn12)c1cccc(C(F)F)c1F [Example 164]	< 0.1	< 0.1		
C[C@@H](Nc1ncnc2c1cc(N1CCOC1=O)c1nncn12)c1cccc(C(F)F)c1F [Example 167]	< 0.1	< 0.1		
C[C@@H](Nc1ncnc2c1cc(N1C(=O)COC[C@@H]1C)c1nncn12)c1cccc(C(F)F)c1F [Example 168]	< 0.1	< 0.1		
Cc1nc2c(C3(C(F)(F)F)CC3)cc3c(N[C@H](C)c4cccc(C(F)F)c4F)ncnc3n2n1 [Example 169, (R)—N-(1-(3-(difluoromethyl)-2-fluorophenyl)ethyl)-2-methyl-4-(1-(trifluoromethyl)cyclopropyl)-[1,2,4]triazolo[1′,5′:1,6]pyrido[2,3-d]pyrimidin-6-amine]	< 0.1	< 0.1		
Cc1nc2c(C3(C#N)CC3)cc3c(N[C@H](C)c4cccc(C(F)F)c4F)ncnc3n2n1 [Example 170, (R)-1-(6-((1-(3-(difluoromethyl)-2-fluorophenyl)ethyl)amino)-2-methyl-[1,2,4]triazolo[1′,5′:1,6]pyrido[2,3-d]pyrimidin-4-yl)cyclopropane-1-carbonitrile]	< 0.1	< 0.1		
Cc1nc(N[C@H](C)c2cccc(C(F)F)c2F)c2cc(C3(C(F)F)CC3)c3nc(C)nn3c2n1 [Example 171]	< 0.1	< 0.1		
C[C@@H](Nc1ncnc2c1cc(C1(C(F)(F)F)CC1)c1nncn12)c1cccc(C(F)F)c1F [Example 172]	< 0.1	< 0.1		
C[C@@H](Nc1ncnc2c1cc(C1(C(F)F)CC1)c1nncn12)c1cccc(C(F)F)c1F [Example 173]	< 0.1	< 0.1		
Cc1nc2c(N3CC4(COC4)C3)cc3c(N[C@H](C)c4cccc(C(F)F)c4F)ncnc3n2n1 [Example 174]	< 0.1	< 0.1		
